In patent US4208514A, “4(3H)-Oxobenzo-2,1,3-thiadiazine-2,2-dioxides” (The Dow Chemical Company, priority 1976, dated 1980):

Assays:
Assay type in all cases: in vivo
[1] = system: Soybean; test: Selective post-emergent greenhouse test, Soybean (crop injury); conditions: Glycine max, post-emergence, 336 h, 2 weeks, read-out: % Control Soybean; for plant injury at 358.672 g/ha: 0.32 lbs/acre; for plant injury at 706.135 g/ha: 0.63 lbs/acre
Source text: (§1) So as to illustrate clearly the phytotoxic properties of the various active ingredients of the present invention, a group of controlled greenhouse experiments is described below.
(§2) Various species of plants, both broadleaf weeds and valuable crops, were planted in beds of good agricultural soil in a greenhouse. After the plants had emerged and grown to a height of about 2-6 inches, a portion of the plants were sprayed with an aqueous mixture, made by mixing a selected active ingredient and emulsifier or dispersant with water to provide solution containing 250 or 125 ppm active ingredient, employing sufficient amounts of the treating composition to provide low post emergent application rates of about 0.63 or 0.32 pounds per acre. Other portions of the plants were left untreated to serve as controls. In each test the active ingredient was a 3-methylethyl-1H-2,1,3-benzothiadiazin-4(3H)-one-2,2-dioxide having a substituent in the one position according to the invention.
(§3) After a period of 2 weeks the selective effect of the test ingredient on the plants was evaluated by a comparison with the control group of plants.

[2] = system: Jimson Weed; test: Selective post-emergent greenhouse test, Jimson Weed; conditions: post-emergence, 336 h, 2 weeks; for pest or weed control at 358.672 g/ha: 0.32 lbs/acre; for pest or weed control at 706.135 g/ha: 0.63 lbs/acre
Source text: as §1, §2, §3

[3] = system: Velvet Leaf; test: Selective post-emergent greenhouse test, Velvet Leaf; conditions: post-emergence, 336 h, 2 weeks; for pest or weed control at 358.672 g/ha: 0.32 lbs/acre; for pest or weed control at 706.135 g/ha: 0.63 lbs/acre
Source text: as §1, §2, §3

[4] = system: Velvet Leaf; test: General post-emergent herbicidal activity at 10 lbs/acre, Velvet Leaf; conditions: post-emergence, 336 h
Source text: as §2, with “[…], […]” for “emulsifier or dispersant with water to provide solution containing 250 or 125 ppm active ingredient, employing sufficient amounts of the treating composition to provide low post emergent application rates of about 0.63 or 0.32 pounds per acre.”
as §3

[5] = system: Pig Weed; test: General post-emergent herbicidal activity at 10 lbs/acre, Pig Weed; conditions: post-emergence, 336 h
Source text: as §2, with “[…], […]” for “emulsifier or dispersant with water to provide solution containing 250 or 125 ppm active ingredient, employing sufficient amounts of the treating composition to provide low post emergent application rates of about 0.63 or 0.32 pounds per acre.”
as §3

[6] = system: Cotton; test: Selective post-emergent greenhouse test, Cotton (crop injury); conditions: Gossypium hirsutum, post-emergence, 336 h, post-emergent, 2 weeks, crop, read-out: % Control Cotton; for plant injury at 358.672 g/ha: 0.32 lbs/acre; for plant injury at 706.135 g/ha: 0.63 lbs/acre
Source text: as §1, §2, §3

[7] = system: Annual Morning Glory; test: General post-emergent herbicidal activity at 10 lbs/acre, Annual Morning Glory; conditions: Ipomoea, post-emergence, 336 h
Source text: as §2, with “[…], […]” for “emulsifier or dispersant with water to provide solution containing 250 or 125 ppm active ingredient, employing sufficient amounts of the treating composition to provide low post emergent application rates of about 0.63 or 0.32 pounds per acre.”
as §3

[8] = system: Nutsedge; test: General post-emergent herbicidal activity at 10 lbs/acre, Nutsedge; conditions: Cyperus, post-emergence, 336 h
Source text: as §2, with “[…], […]” for “emulsifier or dispersant with water to provide solution containing 250 or 125 ppm active ingredient, employing sufficient amounts of the treating composition to provide low post emergent application rates of about 0.63 or 0.32 pounds per acre.”
as §3

Row | Structure (SMILES) | plant injury at 358.672 g/ha [1] [%] | plant injury at 706.135 g/ha [1] [%] | pest or weed control at 358.672 g/ha [2] [%] | pest or weed control at 706.135 g/ha [2] [%] | pest or weed control at 358.672 g/ha [3] [%] | pest or weed control at 706.135 g/ha [3] [%] | pest or weed control at 11208.5 g/ha [4] [%] | pest or weed control at 11208.5 g/ha [5] [%] | plant injury at 358.672 g/ha [6] [%] | plant injury at 706.135 g/ha [6] [%] | pest or weed control at 11208.5 g/ha [7] [%] | pest or weed control at 11208.5 g/ha [8] [%]
1 | COCC(=O)N1c2ccccc2C(=O)N(C(C)C)S1(=O)=O [COCH2 OCH3, 1H-2,1,3-Benzothiadiazin-4(3H)-one: 1-methoxyacetyl-3-(1-methylethyl)-; 2,2-dioxide] | 0 | 0 | 100 | 100 | 80 | 100 | 100 | 100 | 0 | 0 | 100 | 90
2 | CC=CC(=O)N1c2ccccc2C(=O)N(C(C)C)S1(=O)=O [COCHCHCH3, 1H-2,1,3-Benzothiadiazin-4(3H)-one: 3-(1-methylethyl)-1-(1-oxo-2-butenyl)-;2,2-dioxide] | 0 | 0 | – | 100 | 70 | 100 | 100 | 100 | 0 | 0 | 100 | 90
3 | CC(C)N1C(=O)c2ccccc2N(C(=O)CCl)S1(=O)=O [COCH2 Cl, 1-(2-Chloroacetyl)-3-(1-methylethyl)-1H-2,1,3-benzothiadiazin-4(3H)-one-2,2-Dioxide] | 10 | 10 | 100 | 100 | 70 | 100 | 100 | 100 | 20 | 70 | 100 | 100
